Here are results for eleven compounds from ChEMBL document CHEMBL1201862, “PubChem BioAssay data set” (2004).

Among the test systems are 786-0; OVCAR-4; UACC-62; SK-OV-3; LOX IMVI; HCC 2998; EKVX; SK-MEL-28; SNB-19; OVCAR-8; HCT-15; TK-10; SK-MEL-2; SF-295; CAKI-1; SNB-75; HL-60; UO-31; OVCAR-3; PC-3.
Common to all, as to experiment: NCI tumour cell line growth inhibition, 48 h

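The compound was tested at five concentrations on cells cultured in 96-well plates, with a 48-hour exposure period. The concentration for 50% growth inhibition is given as GI50.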 The source made the active and inactive calls. No stated cut-off is given here; in the data, active = GI50 up to about 1.1 µM and inactive = higher. Some results are limits rather than exact numbers.

For `COc1ccc(-c2cn3ccsc3n2)cc1`, the GI50 with 786-0 was 35.6 µM (inactive); with OVCAR-4, > 100 µM (inactive); in the test with UACC-62, > 100 µM (inactive); with SK-OV-3 it was > 100 µM (inactive); in the test on LOX IMVI it was 36.2 µM (inactive); with HCC 2998, > 100 µM (inactive). Also, the GI50 in the test on EKVX was > 100 µM (inactive); in the test on SK-MEL-28, > 100 µM (inactive); in the test on SNB-19, > 100 µM (inactive); in the test with OVCAR-8, > 100 µM (inactive); in the test with HCT-15, 39.6 µM; in the test with TK-10 it was > 100 µM (inactive). The GI50 in the test on SK-MEL-2 was > 100 µM (inactive); with SF-295 it was > 100 µM (inactive); in the test on CAKI-1, > 100 µM (inactive); in the test on SNB-75, > 100 µM (inactive); with HL-60 it was 24.7 µM (inactive); in the test on UO-31, > 100 µM (inactive). The GI50 in the test on OVCAR-3 was > 100 µM (inactive).

Consider `O=C(Cc1nc2ccccc2s1)Nc1cccc(C(F)(F)F)c1`, for which the GI50 with 786-0 is 14.2 µM (inactive); in the test with OVCAR-4 it was 16.2 µM (inactive); with UACC-62, 12.6 µM (inactive); with SK-OV-3 it was 29.5 µM (inactive); with LOX IMVI, 13.1 µM (inactive); with HCC 2998 it was 15.6 µM (inactive). Further, the GI50 in the test with EKVX is 22.2 µM (inactive); in the test on SK-MEL-28, 15 µM (inactive); in the test on SNB-19 it was 16.9 µM (inactive); with OVCAR-8, 18.1 µM (inactive); in the test on HCT-15, 12.4 µM; with TK-10 it was 21.2 µM (inactive). Moreover, the GI50 is 18.5 µM (inactive) with SK-MEL-2; 16.2 µM (inactive) in the test with SF-295; 16.7 µM (inactive) in the test with CAKI-1; 13.7 µM (inactive) in the test on SNB-75; 3.59 µM (inactive) in the test on HL-60; 14.5 µM (inactive) in the test with UO-31. Moreover, the GI50 in the test with OVCAR-3 is 17.6 µM (inactive).

With `FC(F)(F)P1C2C=CC(CC2)C1(F)F` (configuration not stated), the GI50 with 786-0, with OVCAR-4, in the test on UACC-62, with SK-OV-3, in the test on LOX IMVI and with HCC 2998 was > 100 µM (inactive) throughout. Moreover, the GI50 in the test on EKVX was > 100 µM (inactive); in the test on SK-MEL-28 it was > 100 µM (inactive); with SNB-19, > 100 µM (inactive); in the test on OVCAR-8, > 100 µM (inactive); in the test on HCT-15, > 100 µM; in the test with TK-10 it was > 100 µM (inactive). Also, the GI50 with SK-MEL-2, in the test with SF-295, in the test on CAKI-1, in the test on SNB-75, in the test with HL-60 and in the test with UO-31 was > 100 µM (inactive) in each case.

As to `CCCCOCN/C(N)=N/C#N`, the GI50 was 33.9 µM (inactive) in the test on 786-0; 64.1 µM (inactive) in the test with OVCAR-4; > 100 µM (inactive) in the test on UACC-62; > 100 µM (inactive) with SK-OV-3; 21.5 µM (inactive) in the test with LOX IMVI; > 100 µM (inactive) in the test with HCC 2998. For the same compound, the GI50 with EKVX was > 100 µM (inactive); in the test on SK-MEL-28, > 100 µM (inactive); with SNB-19, > 100 µM (inactive); in the test on OVCAR-8, > 100 µM (inactive); in the test with HCT-15, 21.9 µM; in the test on TK-10 it was > 100 µM (inactive). Further, the GI50 with SK-MEL-2, in the test on SF-295, in the test on CAKI-1, with SNB-75, in the test with HL-60 and in the test with UO-31 was > 100 µM (inactive) throughout. For the same compound, the GI50 with OVCAR-3 is > 100 µM (inactive).

With `NC(=O)C#CC#CC#CCO`, the GI50 in the test on 786-0 is 1.59 µM (inactive); in the test on OVCAR-4 it was 1.83 µM (inactive); with UACC-62 it was 1.92 µM (inactive); with SK-OV-3, 12.8 µM (inactive); with LOX IMVI, 2.09 µM (inactive); in the test with HCC 2998, 1.7 µM (inactive). The GI50 with EKVX was 1.68 µM (inactive); in the test with SK-MEL-28, 2.14 µM (inactive); with SNB-19, 14.9 µM (inactive); in the test with OVCAR-8, 1.81 µM (inactive); with HCT-15, 1.8 µM; in the test with TK-10, 1.61 µM (inactive). Besides, the GI50 was 2.2 µM (inactive) with SK-MEL-2; 3.94 µM (inactive) in the test with SF-295; 1.92 µM (inactive) in the test on CAKI-1; 1.82 µM (inactive) in the test on SNB-75; 1.26 µM (inactive) in the test on HL-60; 1.95 µM (inactive) in the test with UO-31. Also, the GI50 in the test with OVCAR-3 was 1.9 µM (inactive).

In the case of `CC(C)OP(=O)(OC(C)C)/C(N)=N/Nc1ccc([N+](=O)[O-])cc1`, the GI50 is > 100 µM (inactive) in the test on 786-0; > 100 µM (inactive) in the test on OVCAR-4; 83 µM (inactive) with UACC-62; > 100 µM (inactive) with LOX IMVI; > 100 µM (inactive) with HCC 2998; 25.4 µM (inactive) with EKVX. In addition, the GI50 with SK-MEL-28 is > 100 µM (inactive); in the test with SNB-19, 77.4 µM (inactive); in the test with OVCAR-8, > 100 µM (inactive); in the test with HCT-15 it was > 100 µM; in the test on TK-10, 27 µM (inactive); with SK-MEL-2, > 100 µM (inactive). Also, the GI50 was > 100 µM (inactive) in the test on CAKI-1; 81.7 µM (inactive) with SNB-75; 58.3 µM (inactive) in the test on HL-60; 61.8 µM (inactive) in the test with UO-31; > 100 µM (inactive) in the test on OVCAR-3.

Regarding `O=[N+]([O-])c1ccc2nc3n(c2c1)C(c1c(F)cccc1F)SC3` (configuration not stated), the GI50 with 786-0, in the test on SK-OV-3, with LOX IMVI, with PC-3, in the test with EKVX and in the test on SK-MEL-28 was > 100 µM (inactive) in each case. For the same compound, the GI50 in the test with SNB-19 was > 100 µM (inactive); with OVCAR-8 it was > 10 µM (inactive); in the test with TK-10, > 100 µM (inactive); in the test on SF-295, 89.5 µM (inactive); in the test with OVCAR-3 it was > 100 µM (inactive).

With `CCc1cccc(C(C)C)c1NC(=O)/C(=N\NC(N)=O)C(C(=O)OC)c1cnc2ccccc2n1` (configuration not stated), the GI50 was 60.8 µM (inactive) in the test on 786-0; 87.7 µM (inactive) in the test on OVCAR-4; 26 µM (inactive) in the test with UACC-62; > 100 µM (inactive) with SK-OV-3; 34.8 µM (inactive) in the test on LOX IMVI; 40.6 µM (inactive) in the test on HCC 2998. Further, the GI50 with EKVX is > 100 µM (inactive); in the test on SK-MEL-28 it was 55.8 µM (inactive); in the test with SNB-19 it was 51.3 µM (inactive); in the test on OVCAR-8 it was 54.1 µM (inactive); with HCT-15, 39.2 µM; in the test with TK-10, > 100 µM (inactive). Also, the GI50 in the test with SK-MEL-2 is 53.3 µM (inactive); in the test with SF-295, 58.5 µM (inactive); in the test on CAKI-1 it was > 100 µM (inactive); with SNB-75, 47.4 µM (inactive); with HL-60, 31.8 µM (inactive); in the test on UO-31, > 100 µM (inactive). Moreover, the GI50 in the test on OVCAR-3 is 20.8 µM (inactive).

Take `CN(C)/C=N\c1nc(=O)n(C2CCC(CO)O2)cc1F` (configuration not stated): the GI50 in the test with 786-0 was > 100 µM (inactive); with OVCAR-4 it was > 100 µM (inactive); with SK-OV-3, > 100 µM (inactive); in the test with LOX IMVI, > 100 µM (inactive); in the test with HCC 2998 it was 96.6 µM (inactive); with EKVX it was > 100 µM (inactive). Further, the GI50 with SK-MEL-28 is > 100 µM (inactive); in the test with SNB-19, > 100 µM (inactive); in the test with OVCAR-8, > 100 µM (inactive); in the test on HCT-15, > 100 µM; in the test with TK-10 it was > 100 µM (inactive); in the test with SK-MEL-2, > 100 µM (inactive). Also, the GI50 in the test on SF-295, in the test on CAKI-1, with SNB-75, with HL-60, in the test with UO-31 and with OVCAR-3 was > 100 µM (inactive) throughout.

In the case of `Clc1ccc(Cc2nc3ccccc3s2)c(Cl)c1`, the GI50 in the test on 786-0 is 14.6 µM (inactive); in the test on OVCAR-4, 13.2 µM (inactive); in the test on UACC-62, 14.1 µM (inactive); in the test on SK-OV-3, 28.2 µM (inactive); in the test on LOX IMVI it was 16.7 µM (inactive); in the test on HCC 2998 it was 18.6 µM (inactive). Also, the GI50 with EKVX is 23.6 µM (inactive); with SK-MEL-28 it was 18.3 µM (inactive); with SNB-19 it was 24.3 µM (inactive); in the test on OVCAR-8, 19.8 µM (inactive); with HCT-15, 16.3 µM; in the test with TK-10 it was 22.7 µM (inactive). Further, the GI50 is 16.4 µM (inactive) with SK-MEL-2; 16.8 µM (inactive) with SF-295; 17.4 µM (inactive) with CAKI-1; 14.7 µM (inactive) with SNB-75; 15.5 µM (inactive) in the test with HL-60; 16.4 µM (inactive) with UO-31. In addition, the GI50 in the test on OVCAR-3 was 18.6 µM (inactive).

With `O=[N+]([O-])c1ccc(C2=Nc3ccccc3[S+]([O-])C(c3ccccc3)C2)cc1` (configuration not stated), the GI50 in the test on 786-0 was 17.5 µM (inactive); in the test with OVCAR-4 it was 20.1 µM (inactive); in the test on UACC-62, 13.6 µM (inactive); in the test on SK-OV-3, 31.9 µM (inactive); in the test with LOX IMVI it was 15.2 µM (inactive); in the test with HCC 2998 it was 18.6 µM (inactive). For the same compound, the GI50 in the test with EKVX is 22.4 µM (inactive); in the test on SK-MEL-28, 20 µM (inactive); in the test on SNB-19, 20 µM (inactive); in the test with OVCAR-8 it was 32.4 µM (inactive); with HCT-15, 27 µM; with TK-10, 27 µM (inactive). Moreover, the GI50 in the test on SK-MEL-2 is 34.7 µM (inactive); in the test on SF-295, 31.3 µM (inactive); in the test on CAKI-1 it was 18.8 µM (inactive); in the test on SNB-75 it was 19 µM (inactive); in the test on HL-60, 16.9 µM (inactive); in the test on UO-31, 16.7 µM (inactive). In the test with OVCAR-3, the GI50 was 17.5 µM (inactive).
